Literature values as cited in patent US20090170848A1, “THIAZOLONES FOR USE AS PI3 KINASE INHIBITORS” (SMITHKLINE BEECHAM CORPORATION, priority 2006, published 2009).
Where two headings read alike, the source gives them in different places.

Columns and labels:
CK2 protein kinase = CK2 protein kinase (Homo sapiens, UniProt P68400)
Sequence of CK2 protein kinase (P68400 whole entry): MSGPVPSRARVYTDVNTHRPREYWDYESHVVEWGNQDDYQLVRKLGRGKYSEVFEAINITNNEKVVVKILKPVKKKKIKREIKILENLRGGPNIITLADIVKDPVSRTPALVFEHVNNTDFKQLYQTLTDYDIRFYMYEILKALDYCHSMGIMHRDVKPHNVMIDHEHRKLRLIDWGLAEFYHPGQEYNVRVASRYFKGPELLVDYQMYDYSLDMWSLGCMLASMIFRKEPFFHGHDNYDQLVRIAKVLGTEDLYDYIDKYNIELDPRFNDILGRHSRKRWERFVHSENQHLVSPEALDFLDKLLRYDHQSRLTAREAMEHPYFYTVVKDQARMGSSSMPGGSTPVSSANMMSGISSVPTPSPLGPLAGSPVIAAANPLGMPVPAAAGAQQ

Row | SMILES | IC50 (CK2 protein kinase) [µM] | IC50 (Class I PI3-kinases; read-out: IC50 values against each of these PI3-kinases) [µM] | IC50 (Class I PI3-kinases; each of the four members of Class I PI3-kinases, read-out: IC50 values against each of the various Class I PI3-kinases) [µM]
1 | O=c1cc(N2CCOCC2)oc2c(-c3ccccc3)cccc12 [LY294002] | 5 to 10 | 15 to 20 | 
2 | COC[C@H]1OC(=O)c2coc3c2[C@@]1(C)C1=C(C3=O)[C@@H]2CCC(=O)[C@@]2(C)C[C@H]1OC(C)=O [wortmannin] |  |  | 0.001 to 0.01
